Literature values in patent publication US20090191293A1, “Composition for enhancing immunity and reducing inflammation related to infections” (IOMEDI DEVELOPMENT INTERNATIONAL, SRL, priority 2007, published 2009).

What was measured:
[1] = system: NF-κB dependent signaling pathway; details: lipopolysaccharide-induced inflammation
[2] = system: arachidonic acid inflammatory reactions
[3] = system: LPS-Stimulated Monocytes/Macrophages
NF-κB = details: treatment of mice
[4] = system: intercellular adhesion molecule-1; details: activated by TNF-α
[5] = system: nuclear factor kappa B (NF-κB); details: HL-60-derived neutrophilic cells
[6] = daily supplementation, amounts greater than 100 mg

OC[C@H]1O[C@@H](Oc2cc3c(O)cc(O)cc3[o+]c2-c2ccc(O)c(O)c2)[C@H](O)[C@@H](O)[C@@H]1O [Example C3G, cyanidin-3-glucoside]
NF-κB dependent signaling pathway [1]: inhibit the NF-κB dependent signaling pathway

Oc1cc(O)c2c(c1)O[C@H](c1ccc(O)c(O)c1)[C@H](O)[C@H]2c1c(O)cc(O)c2c1O[C@H](c1ccc(O)c(O)c1)[C@H](O)C2 [Procyanidin B(2)]
arachidonic acid inflammatory reactions [2]: strongly inhibit arachidonic acid inflammatory reactions

CC1=C(/C=C/C(C)=C/C=C/C(C)=C/C(=O)O)C(C)(C)CCC1 [all trans-retinoic acid (atRA), all trans-retinoic acid]
production of IL-10 [3]: enhancing the production of the immune modulating cytokine, IL-10
production of pro-inflammatory cytokines (IL-12 and TNF-α) [3]: lower the production of pro-inflammatory cytokines

C=CCS[S+]([O-])CC=C (stereo not drawn) [allicin]
NF-κB binding to the nucleus (NF-κB): significantly reduced NF-κB binding to the nucleus
TNF-α mediated T cell adhesion to extracellular matrix components and endothelial cells (T cell): inhibition of TNF-α mediated T cell adhesion

C=C1CC[C@@H]2[C@](C)(CO)[C@H](O)CC[C@@]2(C)[C@@H]1C/C=C1/C(=O)OC[C@H]1O [andrographolide]
expression of intercellular adhesion molecule-1 [4]: inhibit expression of intercellular adhesion molecule-1
binding of NF-κB to the DNA [5]: specifically affects the binding of nuclear factor kappa B (NF-κB) to the DNA

O=C1O[C@H]([C@@H](O)CO)C(O)=C1O [ascorbic acid, L-ascorbic acid]
incidence, severity and integrated morbidity of the common cold [6]: lowers the incidence, severity and integrated morbidity of the common cold
